Measured values from paper PMC7894522, “Structure Based Design of Bicyclic Peptide Inhibitors of RbAp48” (Angewandte Chemie (International Ed. in English), 2020).
Starred links: 1 amine or outer side, 2 acyl side, 3 side chain; linkers in the order of their positions; H or OH if unused. Positions of bridges follow the written chain, without caps; N, C: chain ends. Residues, ends and D or L forms follow the SMILES beside them. TBMB = c1c(C[*:1])cc(C[*:3])cc1C[*:2]

Tests used:
RbAp48 [1] = biological target: T1, RbAp48 (Homo sapiens, UniProt Q09028); experiment: Competitive fluorescence polarization (FP) assay using complex of peptide 1 and RbAp48; assay type: binding; parameters: Full length RbAp48 was cloned; His tag followed by 3C cleavage site (N, cleaved yes); made in house; host or cells: Sf9 insect cells; settings: Table 1; competitive FP, tracer peptide 1 1 nM, RbAp48 15 nM, 20 mM Tris-HCl, 150 mM NaCl, 0.01% Tween-20, pH 7.5, 30 min room temperature; lower limit set by 15 nM protein; read-out: IC50
Summary of the method: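 Sf9-expressed full-length RbAp48 (tag cleaved), 15 nM, displaced from 1 nM fluorescent peptide tracer in 20 mM Tris-HCl pH 7.5, 150 mM NaCl, 0.01% Tween-20. Read by FP (ex 485/em 535 nm) after 30 min at room temperature.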

RbAp48 [2] = biological target: T1, RbAp48; experiment: Isothermal titration calorimetry (direct and competitive); assay type: binding; parameters: Full length RbAp48 was cloned; His tag followed by 3C cleavage site (N, cleaved yes); made in house; host or cells: Sf9 insect cells; settings: competitive ITC with weak ligand 40
Description: The weak ligand interferes with binding of the strong ligand allowing the use of higher concentrations and therefore stronger signal. The actual affinity and thermodynamic parameters can then be calculated from the measured values.[ ^20 , ^21 ] The long linear peptide 2, monocyclic peptide 8, and bicyclic peptide 33 were analysed using this method and the results are reported in Table 2 (See Figure 4 A and Supplemental Figure 13–16). […] An effect which could not clearly be observed by the FP assay as it's lower limits were reached.
Protein expression and purification
RbAp48 was expressed and purified by the Dortmund Protein Facility. Full length RbAp48 was cloned into a pOPIN vector ligating it to an N-terminal His tag followed by a 3C cleavage site. The protein was expressed from Sf9 cells for 48 h. Cells were harvested and lysed and the protein was purified by loading onto a HisTrap FF crude 5 ml column followed by on-column cleavage using Precission protease. The cleaved protein was then further purified using a HiLoad 26/60 Superdex 200 column.
(§1) Fluorescence polarization assay […]
Isothermal Titration Calorimetry
Isothermal titration calorimetry measurements w ere performed using a Microcal ITC-200 device. The buffer for all measurements consisted of 20 mM Tris, 150 mM NaCl, pH 7.5 and all measurements were performed at 25°C in duplicate except for 8. RbAp48 was dialyzed overnight using a 10 kDa MWCO Slide-A-lizer dialysis membrane and peptide samples were dissolved in the dialysis buffer. Direct measurements of 40 were perfomed by titrating the peptide ( 800 µM) into the cell containing RbAp48 (40 µM) using 2 µl injection after an initial injection of 0.5 µl. […]
by competitive ITC where the protein is premixed with a weak ligand ( 40).[1] Competitive measurements were performed by titrating 2, 8 or 33 (300 µM) into the cell containing RbAp48 (30 µM) and 40 (416 µM). Other conditions were the same as for the direct measurement described above.
Ki was calculated according using the following formula: […]

[3] = Peptide stability in MDA-MB-231 whole cell lysate; assay type: in vitro ADME; settings: human, 37°C, HPLC, duplicate
Description: To investigate whether the cyclization strategy influences the stability of the peptides we incubated 3, 8 and 33 in MDA‐MB‐231 cell lysate. […]
as §1
Isothermal Titration Calorimetry […]
Peptide stability was tested in whole cell lysate prepared from MDA-MB-231 cells using the freeze-thaw method. Peptides were dissolved in lysate (normalized to 5mg/ml protein using PBS) at 600 µM and incubated at 37°C. Samples were taken at different time points and mixed with an equal amount of MeOH containing 0.05 mg/ml ethylparaben as an i nternal standard. The samples were mixed and kept on ice for 15 minutes before centrifugation at 14000 rpm at 4 °C for 10 min. The supernatant was carefully removed and analyzed by HPLC. Peptide peaks were integrated and surface areas compared […]
Measurements were performed in duplicate.

T1 sequence (Q09028 whole entry): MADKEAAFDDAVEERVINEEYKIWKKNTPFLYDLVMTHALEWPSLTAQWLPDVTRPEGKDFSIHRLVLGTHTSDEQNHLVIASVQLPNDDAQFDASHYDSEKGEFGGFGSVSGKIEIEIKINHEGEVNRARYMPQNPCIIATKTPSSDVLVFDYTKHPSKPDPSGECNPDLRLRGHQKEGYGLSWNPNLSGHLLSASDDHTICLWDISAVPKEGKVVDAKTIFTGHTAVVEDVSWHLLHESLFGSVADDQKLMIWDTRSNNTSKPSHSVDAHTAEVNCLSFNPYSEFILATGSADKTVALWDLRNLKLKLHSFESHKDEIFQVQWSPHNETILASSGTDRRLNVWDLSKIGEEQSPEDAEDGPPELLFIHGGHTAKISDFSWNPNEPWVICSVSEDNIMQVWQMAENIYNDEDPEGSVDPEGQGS

CC(=O)N[C@H]1CSCc2cc3cc(c2)CSC[C@@H](C(=O)N[C@@H](C)C(N)=O)NC(=O)[C@@H]2CCCN2C(=O)[C@H](CCCCN)NC(=O)[C@H](Cc2ccc(O)cc2)NC(=O)[C@@H]2CCCN2C(=O)[C@H](CCCNC(=N)N)NC(=O)[C@H](CCCNC(=N)N)NC(=O)[C@H](C)NC(=O)[C@H](CSC3)NC(=O)[C@H](CCCNC(=N)N)NC(=O)[C@H](CCCCN)NC(=O)[C@H]([C@@H](C)O)NC1=O [Peptide 33] (Ac-CTKRCARRPYKPCA-NH2; linker 1-5-13 via TBMB)
IC50 (RbAp48 [1]): 12.3 ± 2 nM
Kd (RbAp48 [2]): 8.56 nM
half-life at 600 µM ([3]; MDA-MB-231 whole cell lysate (freeze-thaw), 5 mg/ml protein in PBS, peptide 600 µM, read-out: t 1/2 (half-life)): 1.57 h
remaining at 1 h, 600 µM ([3]; T 60 min, MDA-MB-231 whole cell lysate 5 mg/ml protein, 600 µM, read-out: % left): 57.8%
remaining at 2 h, 600 µM ([3]; T 120 min, MDA-MB-231 whole cell lysate 5 mg/ml protein, 600 µM, read-out: % left): 41.4%
remaining at 4 h, 600 µM ([3]; T 240 min, MDA-MB-231 whole cell lysate 5 mg/ml protein, 600 µM, read-out: % left): 0%
